Molecular target: Factor D (Homo sapiens (Human), UniProt P00746)
Test: biochemical
Type: biochemical
Conditions: read-out: IC50

Chain of Factor D (P00746 26-253): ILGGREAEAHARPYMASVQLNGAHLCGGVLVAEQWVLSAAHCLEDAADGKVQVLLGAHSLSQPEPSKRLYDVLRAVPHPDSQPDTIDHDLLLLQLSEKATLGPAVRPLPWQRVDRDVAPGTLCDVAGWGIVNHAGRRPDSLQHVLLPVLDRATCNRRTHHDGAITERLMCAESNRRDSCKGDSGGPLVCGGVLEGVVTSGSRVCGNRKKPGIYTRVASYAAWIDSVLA

Row | SMILES | IC50
1 | CC(=O)c1cn(CC(=O)N2C[C@H](F)C[C@H]2C(=O)NCc2cccc(Cl)c2F)c2cc(Cl)ccc12 [Example 531, (2S,4R)-1-[2-(3-Acetyl-6-chloro-indol-1-yl)-acetyl]-4-fluoro-pyrrolidine-2-carboxylic acid 3-chloro-2-fluoro-benzylamide] | 11 nM
2 | NC(=O)c1cn(CC(=O)N2C[C@H](F)C[C@H]2C(=O)NCc2cccc(Cl)c2F)c2cc(Br)c(F)cc12 [Example 479, 6-Bromo-1-{2-[(2S,4R)-2-(3-chloro-2-fluoro-benzylcarbamoyl)-4-fluoro-pyrrolidin-1-yl]-2-oxo-ethyl}-5-fluoro-1H-indole-3-carboxylic acid amide] | 89 nM
3 | NC(=O)n1cc(NC(=O)N2[C@@H]3C[C@@H]3C[C@H]2C(=O)N[C@H](CCO)c2cccc(Cl)c2F)c2ccccc21 [Example 223, (1R,3S,5R)-2-Azabicyclo[3.1.0]hexane-2,3-dicarboxylic acid 2-[(1-carbamoyl-1H-indol-3-yl)-amide] 3-{[(R)-1-(3-chloro-2-fluoro-phenyl)-3-hydroxy-propyl]-amide}] | 12 nM
4 | COC(=O)c1ccc2c(C(C)=O)cn(CC(=O)N3C[C@](C)(F)C[C@H]3C(=O)NCc3cccc(Cl)c3F)c2c1 [Example 548, 3-Acetyl-1-{2-[(2S,4R)-2-(3-chloro-2-fluoro-benzylcarbamoyl)-4-fluoro-4-methyl-pyrrolidin-1-yl]-2-oxo-ethyl}-1H-indole-6-carboxylic acid methyl ester] | 363 nM
5 | CC(=O)c1cn(CC(=O)N2[C@@H]3C[C@@H]3C[C@H]2C(=O)Nc2cc(Br)cc(-c3nnn[nH]3)c2)c2ccccc12 [Example 515, (1R,3S,5R)-2-[2-(3-Acetyl-indol-1-yl)-acetyl]-2-aza-bicyclo[3.1.0]hexane-3-carboxylic acid [3-bromo-5-(2H-tetrazol-5-yl)-phenyl]-amide] | 268 nM
6 | CC(=O)c1nn(CC(=O)N2[C@@H]3C[C@@H]3C[C@H]2C(=O)Nc2cccc(Br)n2)c2cnccc12 [Example 736, (1R,3S,5R)-2-[2-(3-Acetyl-pyrazolo[3,4-c]pyridin-1-yl)-acetyl]-2-aza-bicyclo[3.1.0] hexane-3-carboxylic acid (6-bromo-pyridin-2-yl)-amide] | 18 nM
7 | NC(=O)c1nn(CC(=O)N2[C@@H]3C[C@@H]3C[C@H]2C(=O)Nc2cccc(OC(F)F)c2F)c2ccccc12 [Example 729, 1-{2-[(1R,3S,5R)-3-(3-Difluoromethoxy-2-fluoro-phenylcarbamoyl)-2-aza-bicyclo[3.1.0]hex-2-yl]-2-oxo-ethyl}-1H-indazole-3-carboxylic acid amide] | 62 nM
8 | CO[C@@H]1CCN(C(=O)Nc2cn(C(N)=O)c3ccccc23)[C@@H]1C(=O)NCc1cccc(Cl)c1F [Example 186, (2S,3R)-3-Methoxy-pyrrolidine-1,2-dicarboxylic acid 1-[(1-carbamoyl-1H-indol-3-yl)-amide] 2-(3-chloro-2-fluoro-benzylamide)] | 20 nM
9 | CCOC(=O)c1cc(Br)c(F)c(NC(=O)[C@@H]2C[C@@H](F)CN2C(=O)Nc2cn(C(N)=O)c3ccccc23)c1 [Example 333, 3-Bromo-5-{[(2S,4R)-1-(1-carbamoyl-1H-indol-3-ylcarbamoyl)-4-fluoro-pyrrolidine-2-carbonyl]-amino}-4-fluoro-benzoic acid ethyl ester] | 47 nM
10 | NC(=O)n1cc(NC(=O)N2C[C@H]3C[C@H]3[C@H]2C(=O)NCc2cccc(Cl)c2F)c2ccccc21 [Example 210, (1R,2S,5S)-3-Aza-bicyclo[3.1.0]hexane-2,3-dicarboxylic acid 3-[(1-carbamoyl-1H-indol-3-yl)-amide] 2-(3-chloro-2-fluoro-benzylamide)] | 22 nM
11 | NC(=O)c1cc(NC(=O)N2CCC[C@H]2C(=O)Nc2cccc(OC(F)(F)F)c2)c2ccccn12 [Example 121, (S)-Pyrrolidine-1,2-dicarboxylic acid 1-[(3-carbamoyl-indolizin-1-yl)-amide]2-[(3-trifluoromethoxy-phenyl)-amide]] | 1250 nM
12 | NC(=O)c1nn(CC(=O)N2C[C@H]3C[C@H]3[C@H]2C(=O)Nc2cccc(Br)n2)c2ccccc12 [Example 746, 1-{2-[(1R,2S,5S)-2-(6-Bromo-pyridin-2-ylcarbamoyl)-3-aza-bicyclo[3.1.0]hex-3-yl]-2-oxo-ethyl}-1H-indazole-3-carboxylic acid amide] | 7 nM
13 | CC(=O)c1cn(CC(=O)N2C[C@H](F)C[C@H]2C(=O)NCc2cccc(Cl)c2F)c2ccc(O)cc12 [Example 579, (2S,4R)-1-[2-(3-Acetyl-5-hydroxy-indol-1-yl)-acetyl]-4-fluoro-pyrrolidine-2-carboxylic acid 3-chloro-2-fluoro-benzylamide] | 39 nM
14 | COc1ccc2c(c1)c(CC(=O)N1C3CC3C[C@H]1C(=O)NCc1cccc(Cl)c1F)cn2C(N)=O (stereo partly drawn) [Example 452, 3-{2-[(1R,3S,5R)-3-(3-Chloro-2-fluoro-benzylcarbamoyl)-2-aza-bicylo[3.1.0]hex-2-yl]-2-oxo-ethyl}-5-methoxy-indole-1-carboxylic acid amide] | 15 nM
15 | NC(=O)n1cc(NC(=O)N2C[C@@H](N)C[C@H]2C(=O)Nc2ccccc2)c2ccccc21 [Example 27, (2S,4S)-4-Amino-pyrrolidine-1,2-dicarboxylic acid 1-[(1-carbamoyl-1H-indol-3-yl)-amide] 2-phenylamide] | 8300 nM
16 | NC(=O)n1cc(NC(=O)N2C[C@](F)(CF)C[C@H]2C(=O)NCc2cccc(Cl)c2F)c2ccccc21 [Example 241, (2S,4S)-4-Fluoro-4-fluoromethyl-pyrrolidine-1,2-dicarboxylic acid 1-[(1-carbamoyl-1H-indol-3-yl)-amide] 2-(3-chloro-2-fluoro-benzylamide)] | 250 nM
17 | COCCOc1ccc2c(c1)c(NC(=O)N1C[C@H](F)C[C@H]1C(=O)NCc1cccc(Cl)c1F)cn2C(N)=O [Example 303, (2S,4R)-4-Fluoro-pyrrolidine-1,2-dicarboxylic acid 1-{[1-carbamoyl-5-(2-methoxy-ethoxy)-1H-indol-3-yl]-amide} 2-(3-chloro-2-fluoro-benzylamide)] | 8 nM
18 | O=C(CO)c1nn(CC(=O)N2[C@@H]3C[C@@H]3C[C@H]2C(=O)NCc2cccc(Cl)c2F)c2ccccc12 [Example 652, (1R,3S,5R)-2-{2-[3-(2-Hydroxy-acetyl)-indazol-1-yl]-acetyl}-2-aza-bicyclo [3.1.0]hexane-3-carboxylic acid 3-chloro-2-fluoro-benzylamide] | 19 nM
19 | CO[C@H]1[C@@H](C(=O)NCc2cccc(Cl)c2F)N(C(=O)Cn2nc(C(C)=O)c3ccncc32)C[C@@H]1F [Example 682, (2S,3S,4S)-1-[2-(3-Acetyl-pyrazolo[3,4-c]pyridin-1-yl)-acetyl]-4-fluoro-3-methoxy-pyrrolidine-2-carboxylic acid 3-chloro-2-fluoro-benzylamide] | 12 nM
20 | COC(=O)COc1ccc2c(c1)c(NC(=O)N1C[C@](C)(F)C[C@H]1C(=O)NCc1cccc(Cl)c1F)cn2C(N)=O [Example 318, (1-carbamoyl-3-{[(2S,4R)-2-(3-chloro-2-fluoro-benzylcarbamoyl)-4-fluoro-4-methyl-pyrrolidine-1-carbonyl]amino}-1H-indol-5-yloxy)-acetic acid methyl ester] | 3 nM
21 | NC(=O)n1cc(CC(=O)N2[C@@H]3C[C@@H]3C[C@H]2C(=O)NCc2ccc(Cl)s2)c2ccccc21 [Example 456, 3-(2-{(1R,3S,5R)-3-[(5-Chloro-thiophen-2-ylmethyl)-carbamoyl]-2-aza-bicyclo[3.1.0]hex-2-yl}-2-oxo-ethyl)-indole-1-carboxylic acid amide] | 85 nM
22 | CC(=O)c1cn(CC(=O)N2[C@@H]3C[C@@H]3C[C@H]2C(=O)NCc2ccc(Cl)s2)c2ncccc12 [Example 484, (1R,3S,5R)-2-[2-(3-Acetyl-pyrrolo[2,3-b]pyridin-1-yl)-acetyl]-2-aza-bicyclo[3.1.0]hexane-3-carboxylic acid (5-chloro-thiophen-2-ylmethyl)-amide] | 358 nM
23 | NC(=O)n1cc(CC(=O)N2C[C@H]3C[C@H]3[C@H]2C(=O)N[C@H](CO)c2cccc(Cl)c2F)c2ccccc21 [Example 463, 3-(2-{(1R,2S,5S)-2-[(S)-1-(3-Chloro-2-fluoro-phenyl)-2-hydroxy-ethylcarbamoyl]-3-azabicyclo[3.1.0]hex-3-yl}-2-oxo-ethyl)-indole-1-carboxylic acid amide] | 3110 nM
24 | NC(=O)n1cc(NC(=O)N2C[C@H](F)C[C@H]2C(=O)N[C@H](CO)c2cccc(Cl)c2F)c2ccccc21 [Example 5, (2S,4R)-4-Fluoro-pyrrolidine-1,2-dicarboxylic acid 1-[(1-carbamoyl-1H-indol-3-yl)-amide] 2-{[(S)-1-(3-chloro-2-fluoro-phenyl)-2-hydroxy-ethyl]-amide}] | 30 nM
25 | NC(=O)n1cc(NC(=O)N2CCC[C@H]2CNS(=O)(=O)c2cccc(Cl)c2)c2ccccc21 [Example 112, 3-({(S)-2-[(3-Chloro-benzenesulfonylamino)-methyl]-pyrrolidine-1-carbonyl}-amino)-indole-1-carboxylic acid amide] | 550 nM
26 | NC(=O)n1cc(NC(=O)N2CCC[C@H]2C(=O)Nc2cccc(OC(F)(F)F)c2)c2ccc(O)cc21 [Example 369, (S)-Pyrrolidine-1,2-dicarboxylic acid 1-[(1-carbamoyl-6-hydroxy-1H-indol-3-yl)-amide]2-[(3-trifluoromethoxy-phenyl)-amide]] | 850 nM
27 | CCC(=O)c1cn(CC(=O)N2[C@@H]3C[C@@H]3C[C@H]2C(=O)NCc2cccc(Cl)c2F)c2cnccc12 [Example 645, (1R,3S,5R)-2-[2-(3-Propionyl-pyrrolo[2,3-c]pyridin-1-yl)-acetyl]-2-aza-bicyclo [3.1.0]hexane-3-carboxylic acid 3-chloro-2-fluoro-benzylamide] | 132 nM
28 | CC(=O)n1cc(NC(=O)N2C[C@@H](CO)C[C@H]2C(=O)NCc2cccc(Cl)c2F)c2ccccc21 [Example 260, (2S,4S)-4-Hydroxymethyl-pyrrolidine-1,2-dicarboxylic acid 1-[(1-acetyl-1H-indol-3-yl)-amide] 2-(3-chloro-2-fluoro-benzylamide)] | 200 nM
